Where two headings read alike, the source gives them in different places.
Target: T1, human hcp SH2 domain (Homo sapiens, UniProt P29350)
T1 sequence (P29350 4-100): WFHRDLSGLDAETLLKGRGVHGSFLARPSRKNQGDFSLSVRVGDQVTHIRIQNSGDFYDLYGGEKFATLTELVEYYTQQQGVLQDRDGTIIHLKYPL
Assay: SH2 domain / pY peptide binding assay (ELISA-based, 96 well plate), hcp SH2
Experimental: The inhibitory activity of compounds at the different human SH2 domains was determined in vitro using SH2 domains expressed as fusion proteins in E. coli. The SH2 domains used herein were the human forms of the src SH2 domain, Grb2 SH2 domain, lck SH2 domain, fyn SH2 domain, SH-PTP2 SH2 domain, p85 SH2 domain and hcp SH2 domain.
The fusion proteins containing the src, lck and hcp SH2 domains were expressed as the general sequence: DET1-DET2-spacer-ek-SH2, where DETI, DET2, spacer, ek and SH2 are as described below. DET1 ("defined epitope tag 1") (SEQ ID NO: 1) is an 11 amino acid sequence found in the Human Immunodeficiency Virus Type 1 (HIV-1) envelope protein gp120 (or gp160). Monoclonal antibodies to various epitopes of HIV-1 gp120 (or gp160) are known in the art, see, for example U.S. Patent 5,166,050. One preferred example is monoclonal antibody 178.1 (see, e.g., Thiriart et al., J. Immunol., 143:1832-1836 (1989)), which was prepared by immunization of mice with a yeast-expressed HIV-1 gp160 molecule from strain BH10 (Ratner et al., Nature, 313:277-284 (1985)). This tag was used for detection of expression (by Western blot), for purification of the protein (by affinity chromatography), and for configuring assays in which the fusion protein was captured or immobilized using the 178.1 antibody. DET2 is a hexahistidine sequence tag (SEQ ID NO: 2) which binds to nickel-containing resins and was used for purification purposes. Spacer (SEQ ID NO: 3) was utilized to design a BamH1 restriction site at the indicated position of the construct. The term -ekrefers to a recognition sequence (SEQ ID NO: 4) for the enterokinase protease which provides for the optional removal of the tags from the SH2 domain, thus producing an SH2 domain that contains no extraneous amino acids. SH2 domains which contain no extraneous amino acids are preferable to tagged protein for crystallography studies. SH2 refers to the SH2 domains of different proteins.
Cloning and expression of human hcp SH2 domain containing tags and an enterokinase proteolytic cleavage site (DET1-DET2-spacer-ek-hcp SH2).
A DNA sequence encoding protein ek-hcp SH2 was reverse transcriptase-PCR amplified from human fetal liver RNA. RNA isolation used Tri-Reagent (Molecular Research Center Inc.) and the Reverse Transcriptase system (GIBCO-BRL) according to the manufacture's instructions. PCR was carried out using the following primers: [formula]
The PCR product was digested with BglII and XbaI, followed by isolation of the digested fragment on an agarose gel. The fragment was ligated into BamHI-XbaI-digested expression vector containing the tagged human src gene DET1-DET2-spacer-ek-src SH2 described in Procedure 2 above. In that vector, the BamHI site is located in between the coding regions for DET2 and ek, and the XbaI site is located after the 3' end of the SH2 coding region. Thus, the ek-hcp SH2 sequence replaced the ek-src SH2 sequence in the above vector. The ligation reaction was used to transform E. coli MM294cI^+. The construct containing DET1-DET2-spacer-ek-hcp SH2 was confirmed by DNA sequencing (SEQ ID NO: 7) and used to transform E. coli GI698 (Invitrogen Corporation, San Diego, CA). Induction of the phage lambda promoter was induced by addition of tryptophan to the culture medium to 10 mg/ml, per the manufacture's instructions. A Coomassie-Blue-stained, Western-blot-positive induced protein band with an apparent molecular weight of 15,000 was observed after tryptophan induction of cells growing at 30° C.
Cells were lysed at neutral pH by sonication in the presance of lysozyme. After centrifugation, the insoluble pellet was solubilized with 8 M urea in Tris buffer pH 8 and bound onto a Ni^++NTA column. The resin was washed with equilibration buffer (Tris buffer pH 8 containing 0.5 M NaCl, 8 M urea and 5 mM BME) and the same buffer containing 15 mM imidazole. […]

[1] = cloned human SH2 domain fusion protein; 0.1 uM biotinylated pY peptide; Table I; read-out: Hcp (IC50)

Row | Compound | IC50 [1] | IC50 (read-out: Hcp (IC50); cloned human SH2 domain fusion protein; 0.1 uM biotinylated pY peptide; Table I)
1 | 4-acetamido-benzamido-trans-4-methyl-cyclohexyl-N-1-(amino-R-2-(methoxy methyl)-pyrrolidine) carboxamide [Compound 8] | > 100000 nM | –
2 | N[C@@H](Cc1cc(Br)c(Oc2ccc(O)c(Cc3ccc(O)nn3)c2)c(Br)c1)C(=O)O [Compound 2, L-3,5-Dibromo-3'-(6-oxo-3(1H)-pyridazinylmethyl)-thyronine] | – | 900 nM
3 | Cc1nc2sc3c(c2c2[nH][nH]c(=O)c12)CCC1(C3)OCCO1 [Compound 3, 8,8-Ethylenedioxy-2,3,7,8,9,10-hexahydro-4-methyl-1H-benzo[b]thieno[2,3-b]pyrazolo[3,4-d]pyridin-3-one] | 1200 nM | –
4 | Cc1ccc(C(=O)c2ccc(C(=O)c3ccc(CC=O)cc3)cc2)cc1 [Compound 4, 4-[4-(4-Methylbenzoyl)benzoyl]phenylacetaldehyde] | 30000 nM | –
5 | Cc1nc2sc3c(c2c2c1c(=O)[nH]n2C)CCC1(C3)OCCO1 [Compound 5, 1,4-Dimethyl-8,8-ethylenedioxy-2,3,7,8,9,10-hexahydro-1H-benzo[b]thieno[2,3-b]pyrazolo[3,4-d]pyridin-3-one] | 100 nM | –
6 | CCCCCCNC(=O)[C@H]1CC[C@H](CNC(=O)c2ccc([N+](=O)[O-])cc2)CC1 [Compound 7, 4-nitro-benzamido-trans-4-methyl-cyclohexyl-N-hexyl carboxamide] | > 300000 nM | –
7 | CCCNC(=O)[C@H]1CC[C@H](CNC(=O)/C=C/c2ccc(C=O)cc2)CC1 [Compound 9, 4-formyl-E-cinnamido-trans-4-methyl-cyclohexyl-N-(propyl) carboxamide] | 12000 nM | –
8 | Cc1nc2sc3c(c2c2[nH][nH]c(=O)c12)CCCC3 [Compound 10, 2,3,7,8,9,10-Hexahydro-4-methyl-1H-benzo[b]thieno[2,3-b]pyrazolo[3,4-d]pyridin-3-one] | 1200 nM | –
